Each molecule was assayed against T1, MRGPRX2 LAD2 (Homo sapiens, UniProt Q96LB1) (assay: LAD2 β-hexosaminidase release assay (degranulation), Cortistatin-14 at EC75). Conditions: LAD2 cells; 1 hour compound incubation, Cortistatin-14 at EC75 for 30 minutes; percent degranulation (β-hexosaminidase).
T1 construct: host or cells: LAD2 human mast cells
T1 sequence (Q96LB1 1-330): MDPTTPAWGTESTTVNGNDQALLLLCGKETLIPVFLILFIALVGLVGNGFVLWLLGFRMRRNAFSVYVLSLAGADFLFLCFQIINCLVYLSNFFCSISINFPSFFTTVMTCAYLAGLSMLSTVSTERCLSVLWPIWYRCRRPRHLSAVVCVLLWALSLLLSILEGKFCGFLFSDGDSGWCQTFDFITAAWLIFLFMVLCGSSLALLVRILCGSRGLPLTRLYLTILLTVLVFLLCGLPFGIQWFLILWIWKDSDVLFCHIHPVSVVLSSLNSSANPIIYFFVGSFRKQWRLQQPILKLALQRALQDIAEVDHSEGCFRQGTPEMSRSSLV
Format: cell-based
Description: LAD2 cells obtained from the NIH were cultured in StemPro34 (Gibco) serum-free media supplemented with GlutaMax, penicillin and streptomycin, and 100 ng/mL SCF (Invitrogen). Cells were maintained in a 37° C., 5% CO2 humidified incubator at a concentration of 2-5E5 cells/mL, with hemidepletion once a week.
One day prior to the assay, cells were starved of SCF at a concentration of 2.3E5 cells/mL. On the day of the assay cells were washed twice in Tyrode's Buffer containing 0.04% BSA (assay buffer) and plated in a 96 well-v-bottom assay plate at 20,000 cells per well in 80 μL of assay buffer. Compounds were solubilized at 10 mM DMSO and added as a 10-fold overconcentrated 8-point curve in assay buffer in a volume of 10 μL using the JANUS liquid handler. Assay plates were incubated for 1 hour at 37° C. Cortistatin-14 was diluted in assay buffer to […] its predetermined EC75 and added to the assay plates in a volume of 10 μL. Assay plates were incubated at 37° C. for 30 minutes. After incubation, cells were pelleted and 50 μL of supernatant from each well was transferred to a 96 well flat bottom plate containing 100 μL of substrate solution (3.5 mg/mL p-Nitrophenyl-N-acetyl-β-D-glucosaminide (Sigma Aldrich) in 40 mM Citrate Buffer (Thermo Fisher)). The remaining cell pellets were lysed with 150 μL of 0.1% Triton-X-100 and mixed thoroughly. 50 μL of lysate was transferred to a 96-well flat bottom plate containing 100 μL of substrate solution. Plates with supernatants and lysates were incubated at 37° C. for 90 minutes prior to addition of 50 μL of 400 mM Glycine buffer (pH 10.7). The plates were read on a Perkin Elmer Envision plate reader at an Abs of 405 nanometers. Percent degranulation was calculated and Xlfit was used to calculate an EC50 value for each compound using a 4-parameter logistic curve fitting model. EC50 ranges are reported as follows: A<100 nM; B 0.1-1 μM; C>1 μM.

Row | Compound | EC50
1 | CC(C)(O)Cn1cc(C(=O)N[C@H]2C[C@@H](Nc3cc(C(F)(F)F)nc4ccc(Cl)cc34)CN(C(=O)C3(F)CC3)C2)c(Cl)n1 [Example 81] | < 100 nM
2 | CC(=O)N1C[C@@H](NC(=O)c2cn(CC(F)(F)F)nc2C2CC2)C[C@@H](Nc2cc(C(F)(F)F)nc3ccc(Cl)cc23)C1 [Example 109] | < 100 nM
3 | O=C(N[C@H]1C[C@@H](Nc2cc(C(F)(F)F)nc3ccc(Cl)cc23)CN(C(=O)C(F)F)C1)c1cn(CC(F)(F)F)nc1C1CC1 [Example 90] | < 100 nM
4 | C[C@@H]1CCCN1C(=O)N[C@H]1C[C@@H](Nc2cc(C(F)(F)F)nc3ccc(Cl)cc23)CN(C(=O)C(F)F)C1 [Example 126] | < 100 nM
5 | CC(C)(O)C(O)Cn1cc(C(=O)N[C@H]2C[C@@H](Nc3cc(C(F)(F)F)nc4ccc(Cl)cc34)CN(C(=O)C(F)F)C2)c(Cl)n1 (stereo partly shown) [Example 122] | < 100 nM
6 | Cc1nn(CC(C)(C)O)cc1C(=O)N[C@H]1C[C@@H](Nc2cc(C(F)(F)F)nc3ccc(Cl)cc23)CN(C(=O)C(F)F)C1 [Example 117] | < 100 nM
7 | CC(C)(O)Cn1cc(C(=O)N[C@H]2C[C@@H](Nc3cc(C(F)(F)F)nc4ccc(Cl)cc34)CN(C3CC(F)(F)C3)C2)c(Cl)n1 [Example 76] | 100 to 1000 nM
8 | CC(=O)N1C[C@@H](NC(=O)c2c[nH]c3cccnc23)C[C@@H](Nc2cc(C(F)(F)F)nc3ccc(Cl)cc23)C1 [Example 97] | < 100 nM
9 | CC(=O)N1C[C@@H](NC(=O)c2cn(CC(C)(C)O)nc2C)C[C@@H](Nc2cc(C(F)(F)F)nc3ccc(Cl)cc23)C1 [Example 104] | < 100 nM
10 | O=C(C(F)F)N1C[C@@H](Nc2nccc3ccccc23)C[C@@H](Nc2cc(C(F)(F)F)nc3ccc(Cl)cc23)C1 [Example 125] | < 100 nM
11 | C[C@H](O)Cn1cc(C(=O)N[C@H]2C[C@@H](Nc3cc(C(F)(F)F)nc4ccc(Cl)cc34)CN(C(=O)C(F)F)C2)c(Cl)n1 [Example 124] | < 100 nM
12 | O=C(N[C@H]1C[C@@H](Nc2cc(C(F)(F)F)nc3ccc(Cl)cc23)CN(C(=O)C(F)F)C1)c1cn(CC2(O)CCC2)nc1Cl [Example 119] | < 100 nM

Each molecule was assayed against T2, human MRGPRX2 (Homo sapiens, UniProt Q96LB1) (assay: MRGPRX2 IP-1 Gq HTRF assay in HEK293 cells stably expressing human MRGPRX2, Cortistatin-14 at EC75). Conditions: 2 hours at 37° C., cellular IP-1.
T2 construct: expressed in transfected cells; host or cells: HEK293
T2 sequence (Q96LB1 1-330): T1 sequence (Q96LB1 1-330)
Format: cell-based
Description: HEK293 cells stably expressing human MRGPRX2 were grown in Dulbecco's Modified Eagle Medium (DMEM) supplemented with 10% fetal bovine serum (FBS), 1% Glutamax, and 1 μg/mL of puromycin. Cells were maintained in a 37° C., 5% CO2 humidified incubator.
Cells were plated in a 384-well assay plate at a density of 20,000 cells per well overnight. Compounds were solubilized at 10 mM in DMSO and added as a 10-point curve using an ECHO acoustic liquid handler. On the day of the assay, Cortistatin-14 was diluted in assay buffer (provided by IP-One-Gq-HTRF kit purchased from Cisbio, 62IPAPEJ) and added to the assay plate at a final concentration corresponding to the predetermined EC75. Plates were incubated at 37° C. for 2 hours prior to addition of HTRF detection reagents per the manufacturer's instructions. The plates were read on a Perkin Elmer Envision plate reader. The HTRF ratio and cellular IP-1 levels were calculated. XLfit was used to calculate an EC50 value for each compound using a 4-parameter logistic curve fitting model. EC50 ranges are reported as follows: A<100 nM; B 0.1-1 μM; C>1 μM.

Row | Compound | EC50
13 | CS(=O)(=O)Nc1cccc(C(=O)N[C@@H]2CNC[C@H](Nc3cc(C(F)(F)F)nc4ccc(Cl)cc34)C2)c1 [Example 7] | > 1000 nM
14 | CC(=O)N1C[C@@H](NC(=O)c2cccc(NS(C)(=O)=O)c2)C[C@@H](Nc2ccc(C#N)c(C(F)(F)F)c2)C1 [Example 46] | > 1000 nM
15 | O=C(N[C@H]1C[C@@H](Nc2cc(C(F)(F)F)nc3ccc(Cl)cc23)CS(=O)(=O)C1)c1ccc(F)cc1 [Example 140] | > 1000 nM
16 | CS(=O)(=O)Nc1cccc(-c2cn([C@@H]3CNC[C@H](Nc4cc(C(F)(F)F)nc5ccc(Cl)cc45)C3)nn2)c1 [Example 54, N-(3-(1-((3S,5R)-5-((6-Chloro-2-(trifluoromethyl)quinolin-4-yl)amino)piperidin-3-yl)-1H-1,2,3-triazol-4-yl)phenyl) methanesulfonamide] | 100 to 1000 nM
17 | CC(=O)N1C[C@@H](NC(=O)c2cn(CC(C)(C)O)nc2Cl)C[C@@H](Nc2cc(C(F)(F)F)nc3ccc(Cl)cc23)C1 [Example 65] | < 100 nM
18 | CC(=O)N1C[C@@H](NC(=O)c2ccc(F)cc2F)C[C@@H](Nc2cc(C(F)(F)F)nc3ccc(Cl)cc23)C1 [Example 27] | 100 to 1000 nM
19 | CC(=O)N1C[C@@H](NC(=O)c2cn(CC(F)(F)F)nn2)C[C@@H](Nc2cc(C(F)(F)F)nc3ccc(Cl)cc23)C1 [Example 33] | 100 to 1000 nM
20 | CC(=O)N1C[C@@H](NC(=O)c2ccc3[nH]ncc3c2)C[C@@H](Nc2cc(C(F)(F)F)nc3ccc(Cl)cc23)C1 [Example 58] | < 100 nM
21 | CS(=O)(=O)Nc1cccc(C(=O)N[C@H]2CC(N(C(=O)C3CC3)c3cc(C(F)(F)F)nc4ccc(Cl)cc34)CN(C(=O)C3CC3)C2)c1 (stereo partly shown) [Example 18] | 100 to 1000 nM
22 | CC(=O)N1C[C@@H](NC(=O)c2cnn(CC3CC3)c2)C[C@@H](Nc2cc(C(F)(F)F)nc3ccc(Cl)cc23)C1 [Example 61] | < 100 nM
23 | COCC(=O)N1C[C@@H](NC(=O)c2cccc(NS(C)(=O)=O)c2)C[C@@H](Nc2cc(C(F)(F)F)nc3ccc(Cl)cc23)C1 [Example 14] | < 100 nM
24 | CC(=O)N1C[C@@H](NC(=O)c2cn(C(F)F)nc2C(F)F)C[C@@H](Nc2cc(C(F)(F)F)nc3ccc(Cl)cc23)C1 [Example 59] | < 100 nM
25 | CC(=O)N1C[C@@H](NC(=O)c2cnn(C(C)C)c2)C[C@@H](Nc2cc(C(F)(F)F)nc3ccc(Cl)cc23)C1 [Example 38] | 100 to 1000 nM
26 | CN(C)CC(=O)N1C[C@@H](NC(=O)c2cccc(NS(C)(=O)=O)c2)C[C@@H](Nc2cc(C(F)(F)F)nc3ccc(Cl)cc23)C1 [Example 13] | 100 to 1000 nM
27 | CC(=O)N1C[C@H](Nc2cc(C(F)(F)F)nc3ccc(Cl)cc23)C[C@H](n2cc(-c3cccc(NS(C)(=O)=O)c3)nn2)C1 [Example 55] | 100 to 1000 nM
28 | CC(=O)N1C[C@@H](Nc2nnc(-c3ccc(F)cc3)o2)C[C@@H](Nc2cc(C(F)(F)F)nc3ccc(Cl)cc23)C1 [Example 71] | > 1000 nM

Row | Compound | EC50
29 | CS(=O)(=O)Nc1cccc(C(=O)N[C@@H]2CNC[C@H](Nc3ccc(C#N)c(C(F)(F)F)c3)C2)c1 [Example 45] | > 1000 nM
30 | CS(=O)(=O)Nc1cccc(C(=O)N[C@H]2C[C@@H](Nc3cc(C(F)(F)F)nc4ccc(Cl)cc34)CN(CC(F)F)C2)c1 [Example 73] | < 100 nM
31 | CC(=O)N1C[C@@H](NC(=O)c2cnn(C)c2C)C[C@@H](Nc2cc(C(F)(F)F)nc3ccc(Cl)cc23)C1 [Example 39] | 100 to 1000 nM
32 | CC(=O)N1C[C@@H](NC(=O)c2ccccc2F)C[C@@H](Nc2cc(C(F)(F)F)nc3ccc(Cl)cc23)C1 [Example 35] | 100 to 1000 nM
33 | CC(=O)N1C[C@H](Nc2cc(C(F)(F)F)nc3ccc(Cl)cc23)C[C@H](N(C)C(=O)c2cnn(C)c2)C1 [Example 47] | > 1000 nM
34 | CC(=O)N1C[C@@H](NC(=O)c2ccc(C(F)(F)F)nc2)C[C@@H](Nc2cc(C(F)(F)F)nc3ccc(Cl)cc23)C1 [Example 63] | 100 to 1000 nM
35 | CC(=O)N1C[C@@H](NC(=O)c2ccc(C(F)(F)F)cc2)C[C@@H](Nc2cc(C(F)(F)F)nc3ccc(Cl)cc23)C1 [Example 67] | 100 to 1000 nM
36 | CC(C)(C)OC(=O)N1C[C@@H](NC(=O)c2cccc(NS(C)(=O)=O)c2)C[C@@H](Nc2cc(C(F)(F)F)nc3ccc(Cl)cc23)C1 [Example 6] | 100 to 1000 nM
37 | CC(=O)N1C[C@@H](NC(=O)c2cnn(C3CCNCC3)c2C)C[C@@H](Nc2cc(C(F)(F)F)nc3ccc(Cl)cc23)C1 [Example 34] | > 1000 nM
38 | CS(=O)(=O)Nc1cccc(C(=O)N[C@H]2CC(Nc3cc(C(F)(F)F)nc4ccc(Cl)cc34)CN(C(=O)c3cccnc3)C2)c1 (stereo partly shown) [Example 19] | 100 to 1000 nM
39 | CS(=O)(=O)Nc1cccc(C(=O)N[C@H]2CC(Nc3cc(C(F)(F)F)nc4ccc(Cl)cc34)CN(C(=O)Nc3ccccc3)C2)c1 (stereo partly shown) [Example 20] | 100 to 1000 nM
40 | CC(=O)N1C[C@@H](NC(=O)c2cnn(CC(C)(C)O)c2)C[C@@H](Nc2cc(C(F)(F)F)nc3ccc(Cl)cc23)C1 [Example 64] | < 100 nM
41 | CCn1cc2cc(C(=O)N[C@H]3C[C@@H](Nc4cc(C(F)(F)F)nc5ccc(Cl)cc45)CN(C(C)=O)C3)ccc2n1 [Example 57] | < 100 nM
42 | CC(=O)N1C[C@@H](NC(=O)c2cnn(-c3ccccc3)c2)C[C@@H](Nc2cc(C(F)(F)F)nc3ccc(Cl)cc23)C1 [Example 69] | 100 to 1000 nM
43 | CC(=O)N1C[C@@H](NC(=O)c2ccc(F)cc2)C[C@@H](Nc2cc(C(F)(F)F)nc3ccc(Cl)cc23)C1 [Example 23] | < 100 nM
